Results: patent publication US20120184542A1, “PYRIDO PYRIMIDINES” (priority 2011, published 2012)
Where a name gives a salt, the structure may show the parent alone. Read-outs that look alike come from different tables or passages of the source.

Tests used:
[1] = biological target: T1, Human DYRK1B (Homo sapiens, UniProt Q9Y463); test: DYRK1B Kinase TR-FRET (IMAP-Tb) Assay; assay type: biochemical; settings: TR-FRET (IMAP-Tb); ATP 70 μM; 37° C. 60 minutes; read-out: Enzyme IC50 (μM) DYRK1B
T1 construct: purchased Invitrogen PR8350B (former PV4649)
T1 sequence (Q9Y463 whole entry): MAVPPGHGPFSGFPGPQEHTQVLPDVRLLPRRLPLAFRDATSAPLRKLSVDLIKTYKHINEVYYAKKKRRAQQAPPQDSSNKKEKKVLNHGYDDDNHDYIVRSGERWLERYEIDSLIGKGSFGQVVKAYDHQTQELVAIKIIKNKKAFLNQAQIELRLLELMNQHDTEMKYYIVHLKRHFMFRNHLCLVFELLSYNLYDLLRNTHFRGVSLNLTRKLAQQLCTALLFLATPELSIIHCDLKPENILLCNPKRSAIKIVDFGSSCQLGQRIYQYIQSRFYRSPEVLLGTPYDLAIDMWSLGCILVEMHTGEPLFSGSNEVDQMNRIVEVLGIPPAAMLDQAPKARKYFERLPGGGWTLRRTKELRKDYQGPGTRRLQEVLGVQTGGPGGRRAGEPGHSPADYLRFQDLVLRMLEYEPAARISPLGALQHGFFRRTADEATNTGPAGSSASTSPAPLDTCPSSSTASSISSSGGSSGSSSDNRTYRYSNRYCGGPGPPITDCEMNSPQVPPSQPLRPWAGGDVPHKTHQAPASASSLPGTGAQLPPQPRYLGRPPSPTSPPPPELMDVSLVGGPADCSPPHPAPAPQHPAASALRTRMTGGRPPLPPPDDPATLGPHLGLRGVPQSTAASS

[2] = biological target: T2, Human DYRK1A (Homo sapiens, UniProt Q13627); test: DYRK1A Kinase TR-FRET (IMAP-Tb) Assay; assay type: biochemical; settings: TR-FRET (IMAP-Tb); ATP 70 μM; 37° C. 60 minutes; read-out: Enzyme IC50 (μM) DYRK1A
T2 construct: purchased Invitrogen PV3997
Summary of the method: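 Recombinant human DYRK1A phosphorylated fluorescent substrate peptide (1.0 μM) with ATP in 10 mM HEPES pH 7.0, 50 mM NaCl, 5 mM MgCl2, 1 mM DTT, 1 mM NaVO4, 0.02% BSA for 60 min at 37 °C. Phosphopeptide detected by IMAP terbium TR-FRET; IC50 reported.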

[3] = tested on: SW620 human colon cancer cells; test: SW620 Cell Viability Assay; assay type: cell-based; settings: CellTiter-Glo, 4 days incubation, read-out: Cellular EC50 (μM) SW620
Summary of the method: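 SW620 human colon cancer cells, some attached 24 h then serum-starved 48 h before dosing; compounds prepared in serum-supplemented medium. Cells incubated with compound 4 days at 37 °C, 5% CO2, and viability measured by CellTiter-Glo luminescence.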

## CN1CCN(CCCNc2ncc3cc(C(=O)Nc4cc(C(=O)NC(CN)c5ccccc5)ccc4Cl)c(=O)[nH]c3n2)CC1 (stereo not drawn) [Example 122, N-(5-(2-Amino-1-phenylethylcarbamoyl)-2-chlorophenyl)-2-(3-(4-methylpiperazin-1-yl)propylamino)-7-oxo-7,8-dihydropyrido[2,3-d]pyrimidine-6-carboxamide]
[1]
  IC50: 0.009 µM
[2]
  IC50: 0.012 µM
[3]; Homo sapiens, SW-620, 96 h
  EC50: 0.359 µM

## CN1CCN(CCCNc2ncc3cc(C(=O)Nc4cc(C(=O)NC(CN)c5ccccc5)ccc4Cl)c(=O)[nH]c3n2)CC1 (stereo not drawn) [Example 123, N-(5-(2-Amino-1-phenylethylcarbamoyl)-2-chlorophenyl)-2-(3-(4-methylpiperazin-1-yl)propylamino)-7-oxo-7,8-dihydropyrido[2,3-d]pyrimidine-6-carboxamide hydrochloride]
[1]
  IC50: 0.0082 µM
[2]
  IC50: 0.0067 µM
[3]; hydrochloride
  EC50: 0.319 µM

## CC1(C)OCC(CNc2ncc3cc(C(=O)Nc4cc(C(=O)NCc5cccc(Cl)c5)ccc4Cl)c(=O)[nH]c3n2)O1 (stereo not drawn) [Example 124, N-(2-Chloro-5-(3-chlorobenzylcarbamoyl)phenyl)-2-((2,2-dimethyl-1,3-dioxolan-4-yl)methylamino)-7-oxo-7,8-dihydropyrido[2,3-d]pyrimidine-6-carboxamide]
[1]
  IC50: 0.107 µM
[2]
  IC50: 0.113 µM
[3]; Homo sapiens, SW-620, 96 h
  EC50: > 10 µM

## O=C(NCc1cccc(Cl)c1)c1ccc(Cl)c(NC(=O)c2cc3cnc(NC4CCNCC4)nc3[nH]c2=O)c1 [Example 125, N-(2-Chloro-5-(3-chlorobenzylcarbamoyl)phenyl)-7-oxo-2-(piperidin-4-ylamino)-7,8-dihydropyrido[2,3-d]pyrimidine-6-carboxamide hydrochloride]
[1]
  IC50: 0.206 µM
[2]
  IC50: 0.0303 µM
[3]; Homo sapiens, SW-620, 96 h
  EC50: 1.5 µM

## O=C(NCc1cccc(Cl)c1)c1ccc(Cl)c(NC(=O)c2cc3cnc(NCC(O)CO)nc3[nH]c2=O)c1 (stereo not drawn) [Example 126, N-(2-Chloro-5-(3-chlorobenzylcarbamoyl)phenyl)-2-(2,3-dihydroxypropylamino)-7-oxo-7,8-dihydropyrido[2,3-d]pyrimidine-6-carboxamide]
[1]
  IC50: 0.059 µM
[2]
  IC50: 0.0197 µM
[3]; Homo sapiens, SW-620, 96 h
  EC50: > 10 µM

## CC(C)(O)CNc1ncc2cc(C(=O)Nc3cc(C(=O)NCc4cccc(Cl)c4)ccc3Cl)c(=O)[nH]c2n1 [Example 127, N-(2-Chloro-5-(3-chlorobenzylcarbamoyl)phenyl)-2-(2-hydroxy-2-methylpropylamino)-7-oxo-7,8-dihydropyrido[2,3-d]pyrimidine-6-carboxamide]
[1]
  IC50: 0.086 µM
[2]
  IC50: 0.0223 µM
[3]; Homo sapiens, SW-620, 96 h
  EC50: 0.165 µM

## COc1ncc2cc(C(=O)Nc3cc(C(=O)N[C@@H](CN)c4cccc(Cl)c4)ccc3Cl)c(=O)[nH]c2n1 [Example 134, 2-Methoxy-7-oxo-7,8-dihydro-pyrido[2,3-d]pyrimidine-6-carboxylic acid {5-[(R)-2-amino-1-(3-chloro-phenyl)-ethylcarbamoyl]-2-chloro-phenyl}-amide]
[1]
  IC50: 1.98 µM
[2]
  IC50: 0.481 µM
[3]; Homo sapiens, SW-620, 96 h
  EC50: 7.57 µM

## COc1ncc2cc(C(=O)Nc3cc(C(=O)N[C@H](CN)c4cccc(Cl)c4)ccc3Cl)c(=O)[nH]c2n1 [Example 135, 2-Methoxy-7-oxo-7,8-dihydro-pyrido[2,3-d]pyrimidine-6-carboxylic acid {5-[(S)-2-amino-1-(3-chloro-phenyl)-ethylcarbamoyl]-2-chloro-phenyl}-amide]
[1]
  IC50: 0.0457 µM
[2]
  IC50: 0.0109 µM
[3]; Homo sapiens, SW-620, 96 h
  EC50: 0.523 µM

## NCC(NC(=O)c1ccc(Cl)c(NC(=O)c2cc3cnc(N4CCC(N)CC4)nc3[nH]c2=O)c1)c1ccccc1 (stereo not drawn) [Example 138, N-(5-(2-Amino-1-phenylethylcarbamoyl)-2-chlorophenyl)-2-(4-aminopiperidin-1-yl)-7-oxo-7,8-dihydropyrido[2,3-d]pyrimidine-6-carboxamide hydrochloride]
[1]
  IC50: 0.0319 µM
[2]
  IC50: 0.0184 µM
[3]; Homo sapiens, SW-620, 96 h
  EC50: 2.9 µM

## CN1CCN(CCNc2ncc3cc(C(=O)Nc4cc(C(=O)NC(CN)c5ccccc5)ccc4Cl)c(=O)[nH]c3n2)CC1 (stereo not drawn) [Example 139, N-(5-(2-Amino-1-phenylethylcarbamoyl)-2-chlorophenyl)-2-(2-(4-methylpiperazin-1-yl)ethylamino)-7-oxo-7,8-dihydropyrido[2,3-d]pyrimidine-6-carboxamide hydrochloride]
[1]
  IC50: 0.019 µM
[2]
  IC50: 0.006 µM
[3]; Homo sapiens, SW-620, 96 h
  EC50: 0.396 µM

## CSc1ncc2cc(C(=O)Nc3cc(C(=O)NC(CO)c4ccccc4)ccc3Cl)c(=O)[nH]c2n1 (stereo not drawn) [Example 140, N-(2-Chloro-5-(2-hydroxy-1-phenylethylcarbamoyl)phenyl)-2-(methylthio)-7-oxo-7,8-dihydropyrido[2,3-d]pyrimidine-6-carboxamide]
[1]
  IC50: 0.17 µM
[2]
  IC50: 0.073 µM
[3]; Homo sapiens, SW-620, 96 h
  EC50: 3.07 µM

## CSc1ncc2cc(C(=O)Nc3cc(C(=O)NC(CCO)c4ccccc4)ccc3Cl)c(=O)[nH]c2n1 (stereo not drawn) [Example 141, N-(2-Chloro-5-(3-hydroxy-1-phenylpropylcarbamoyl)phenyl)-2-(methylthio)-7-oxo-7,8-dihydropyrido[2,3-d]pyrimidine-6-carboxamide]
[1]
  IC50: 0.12 µM
[2]
  IC50: 0.101 µM
[3]; Homo sapiens, SW-620, 96 h
  EC50: 2.39 µM

## NC1CCN(c2ncc3cc(C(=O)Nc4cc(C(=O)NC(CO)c5ccccc5)ccc4Cl)c(=O)[nH]c3n2)CC1 (stereo not drawn) [Example 147, 2-(4-Aminopiperidin-1-yl)-N-(2-chloro-5-(2-hydroxy-1-phenylethylcarbamoyl)phenyl)-7-oxo-7,8-dihydropyrido[2,3-d]pyrimidine-6-carboxamide hydrochloride]
[1]
  IC50: 0.483 µM
[2]
  IC50: 0.194 µM
[3]; Homo sapiens, SW-620, 96 h
  EC50: 1.44 µM

## NC1CCN(c2ncc3cc(C(=O)Nc4cc(C(=O)NC(CCO)c5ccccc5)ccc4Cl)c(=O)[nH]c3n2)CC1 (stereo not drawn) [Example 148, 2-(4-Aminopiperidin-1-yl)-N-(2-chloro-5-(3-hydroxy-1-phenylpropylcarbamoyl)phenyl)-7-oxo-7,8-dihydropyrido[2,3-d]pyrimidine-6-carboxamide hydrochloride]
[1]
  IC50: 0.321 µM
[2]
  IC50: 0.15 µM
[3]; Homo sapiens, SW-620, 96 h
  EC50: 0.069 µM

## NCC(NC(=O)c1ccc(Cl)c(NC(=O)c2cc3cncnc3[nH]c2=O)c1)c1ccccc1 (stereo not drawn) [Example 151, N-(5-(2-Amino-1-phenylethylcarbamoyl)-2-chlorophenyl)-7-oxo-7,8-dihydropyrido[2,3-d]pyrimidine-6-carboxamide hydrochloride]
[1]
  IC50: 0.096 µM
[2]
  IC50: 0.061 µM
[3]; Homo sapiens, SW-620, 96 h
  EC50: 4.26 µM

## NCCC(NC(=O)c1ccc(Cl)c(NC(=O)c2cc3cncnc3[nH]c2=O)c1)c1ccccc1 (stereo not drawn) [Example 152, N-(5-(3-Amino-1-phenylpropylcarbamoyl)-2-chlorophenyl)-7-oxo-7,8-dihydropyrido[2,3-d]pyrimidine-6-carboxamide hydrochloride]
[1]
  IC50: 0.033 µM
[2]
  IC50: 0.066 µM
[3]; Homo sapiens, SW-620, 96 h
  EC50: 2.68 µM

## COc1ncc2cc(C(=O)Nc3cc(C(=O)N[C@H](CCO)c4ccccc4)ccc3Cl)c(=O)[nH]c2n1 [Example 158, (R)—N-(2-Chloro-5-(3-hydroxy-1-phenylpropylcarbamoyl)phenyl)-2-methoxy-7-oxo-7,8-dihydropyrido[2,3-d]pyrimidine-6-carboxamide]
[1]
  IC50: 0.082 µM
[2]
  IC50: 0.037 µM
[3]; Homo sapiens, SW-620, 96 h
  EC50: 1.71 µM
